The values that follow are results of earlier work, collected in article PMC9019041, “Structural insights into the peptide selectivity and activation of human neuromedin U receptors” (Nature Communications, 2022).

In series [1] the test system is neuromedin U receptor 2 (NMUR2). The settings on record: low selectivity; cited from earlier work. An excerpt:
(§1) Human neuromedin U (NMU) is a 25-amino-acid endogenous peptide that was first discovered in extracts of the porcine spinal cord with a potent smooth muscle contractile activity. It is also involved in pleiotropic physiological functions, including the regulation of blood pressure, food uptake, nociception, pain perception, bone formation, and immunological responses. More recently, human neuromedin S (NMS), a 33-amino-acid endogenous peptide, was discovered, which shares an identical C-terminal heptapeptide with NMU. Unlike NMU, which is widely distributed in the central nervous system ( ...

In series [2] the test system is neuromedin U receptor 1 (NMUR1). The settings on record: low selectivity; cited from earlier work.
Source text: as §1

Where no end group is shown, it is not given here.

Regarding “neuromedin S (ILQRGSGTAAVDFTKKDHTATWGRPFFLFRPRN-NH2) [NMS, Human 33-amino-acid endogenous neuropeptide sharing the C-terminal heptapeptide with NMU; agonist of NMUR1 and NMUR2 (GenScript)]”, the affinity result in series [1] and in series [2] was “sub-nanomolar” in each case.
